Assay: in vitro
Conditions: human, hek293t cells

SMILES | viability at 48 h, 25 µM [%]
COc1cc(C=C(C#N)C(=O)Nc2ccc(Cl)cc2)cc(OC)c1 [8-K16, N-(4-chlorophenyl)-2-cyano-3-(3,5-dimethoxyphenyl)prop-2-enamide] | 81.7
CN1C(=O)C(=C(C#N)C(=O)NCc2ccc(Cl)cc2)c2ccccc21 [8-K17, N-[(4-chlorophenyl)methyl]-2-cyano-2-(1-methyl-2-oxo-2,3-dihydro-1H-indol-3-ylidene)acetamide] | 78.3
CC(C)NC(=O)C(C#N)=Cc1ccc(-c2ccccc2F)o1 [8-K18, 2-cyano-3-[5-(2-fluorophenyl)furan-2-yl]-N-(propan-2-yl)prop-2-enamide] | 16
COc1ccc(C=C(C#N)C(=O)NCc2ccccc2)cc1 [8-K19, N-benzyl-2-cyano-3-(4-methoxyphenyl)prop-2-enamide] | 77.3
N#CC(=Cc1ccc(Cl)cc1)C(=O)Nc1ccncc1 [8-K20, 3-(4-chlorophenyl)-2-cyano-N-(pyridin-4-yl)prop-2-enamide] | 61.4
N#CC(=Cc1ccccc1OC(F)F)C(=O)Nc1ccccc1F [8-K21, 2-cyano-3-[2-(difluoromethoxy)phenyl]-N-(2-fluorophenyl)prop-2-enamide] | 82.5
CCc1ccc(NC(=O)C(C#N)=Cc2ccn(-c3ccccc3)n2)cc1 [8-K22, 2-cyano-N-(4-ethylphenyl)-3-(1-phenyl-1H-pyrazol-3-yl)prop-2-enamide] | 36.8
N#CC(C(=O)Nc1ccc2c(c1)OCCO2)=C1N=C(N)c2ccccc21 [8-L03, 2-(3-amino-1H-isoindol-1-ylidene)-2-cyano-N-(2,3-dihydro-1,4-benzodioxin-6-yl)acetamide] | 83.5
N#CC(=Cc1cccc(Cl)c1Cl)C(=O)NCc1ccccc1 [8-L04, N-benzyl-2-cyano-3-(2,3-dichlorophenyl)prop-2-enamide] | 13.2
CC(C)NC(=O)C(C#N)=Cc1ccccc1 [8-L05, 2-cyano-3-phenyl-N-(propan-2-yl)prop-2-enamide] | 104
Cn1cc(C=C(C#N)C(=O)NCc2ccco2)cn1 [8-L06, 2-cyano-N-[(furan-2-yl)methyl]-3-(1-methyl-1H-pyrazol-4-yl)prop-2-enamide] | 89.4
N#CC(=Cc1ccc(F)cc1)C(=O)Nc1ccc(C(=O)O)cc1 [8-L07, 4-[2-cyano-3-(4-fluorophenyl)prop-2-enamido]benzoic acid] | 119
CCCn1c(C)cc(C=C(C#N)C(=O)N2CCC2)c1C [8-L08, 2-(azetidine-1-carbonyl)-3-(2,5-dimethyl-1-propyl-1H-pyrrol-3-yl)prop-2-enenitrile] | 77.4
C=CCNC(=O)C(C#N)=Cc1cccc(C(F)(F)F)c1 [8-L09, 2-cyano-N-(prop-2-en-1-yl)-3-[3-(trifluoromethyl)phenyl]prop-2-enamide] | 96.8
Cn1cc(C=C(C#N)C(=O)NCCc2ccccc2)cn1 [8-L10, 2-cyano-3-(1-methyl-1H-pyrazol-4-yl)-N-(2-phenylethyl)prop-2-enamide] | 101
Cc1ccc(C)c(NC(=O)C(C#N)=Cc2ccc3c(c2)OCCO3)c1 [8-L11, 2-cyano-3-(2,3-dihydro-1,4-benzodioxin-6-yl)-N-(2,5-dimethylphenyl)prop-2-enamide] | 96.2
COCCNC(=O)C(C#N)=Cc1cccc2ccccc12 [8-L12, 2-cyano-N-(2-methoxyethyl)-3-(naphthalen-1-yl)prop-2-enamide] | 91.8
CC(C)NC(=O)C(C#N)=Cc1ccc(C(F)(F)F)cc1 [8-L13, 2-cyano-N-(propan-2-yl)-3-[4-(trifluoromethyl)phenyl]prop-2-enamide] | 37.8

SMILES | viability at 48 h, 25 µM [%]
CC(C)(C)c1ccc(C=C(C#N)C(=O)NCc2ccco2)cc1 [8-L14, 3-(4-tert-butylphenyl)-2-cyano-N-[(furan-2-yl)methyl]prop-2-enamide] | 76.1
CCC1SC(=C(C#N)C(=O)NC)N(c2ccc(Cl)cc2)C1=O (centres unmarked) [8-L15, 2-[3-(4-chlorophenyl)-5-ethyl-4-oxo-1,3-thiazolidin-2-ylidene]-2-cyano-N-methylacetamide] | 132
COc1ccc(-c2nn(-c3ccccc3)cc2C=C(C#N)C(N)=O)cc1 [8-L16, 2-cyano-3-[3-(4-methoxyphenyl)-1-phenyl-1H-pyrazol-4-yl]prop-2-enamide] | 109
N#CC(=Cc1cccnc1)C(=O)Nc1cccc2ccccc12 [8-L17, 2-cyano-N-(naphthalen-1-yl)-3-(pyridin-3-yl)prop-2-enamide] | 110
CC(NC(=O)C(C#N)=Cc1cccc(F)c1)c1ccccc1 (centres unmarked) [8-L18, 2-cyano-3-(3-fluorophenyl)-N-(1-phenylethyl)prop-2-enamide] | 34.6
CCCn1c(C)cc(C=C(C#N)C(=O)Nc2cccc(F)c2)c1C [8-L19, 2-cyano-3-(2,5-dimethyl-1-propyl-1H-pyrrol-3-yl)-N-(3-fluorophenyl)prop-2-enamide] | 103
C=CCNC(=O)C(C#N)=Cc1ccc(-c2ccc(F)cc2)o1 [8-L20, 2-cyano-3-[5-(4-fluorophenyl)furan-2-yl]-N-(prop-2-en-1-yl)prop-2-enamide] | 114
N#CC(=Cc1ccc(Cl)cc1)C(N)=O [8-L21, 3-(4-chlorophenyl)-2-cyanoprop-2-enamide] | 112
N#CC(=Cc1ccc(OC(F)F)cc1)C(=O)N1CCCC1 [8-L22, 3-[4-(difluoromethoxy)phenyl]-2-(pyrrolidine-1-carbonyl)prop-2-enenitrile] | 105
COc1ccc(C=C(C#N)C(=O)Nc2cccc(C)c2)cc1 [8-M03, 2-cyano-3-(4-methoxyphenyl)-N-(3-methylphenyl)prop-2-enamide] | 95.7
CN1C(=CC=C(C#N)C(=O)NCC2CCCO2)C(C)(C)c2ccccc21 (centres unmarked) [8-M04, 2-cyano-N-[(oxolan-2-yl)methyl]-4-(1,3,3-trimethyl-2,3-dihydro-1H-indol-2-ylidene)but-2-enamide] | 77.7
COc1ccc(C=C(C#N)C(=O)Nc2cccnc2)cc1OC [8-M05, 2-cyano-3-(3,4-dimethoxyphenyl)-N-(pyridin-3-yl)prop-2-enamide] | 118
CCOc1cc(C=C(C#N)C(=O)N2CCCC2)cc(Cl)c1O [8-M06, 3-(3-chloro-5-ethoxy-4-hydroxyphenyl)-2-(pyrrolidine-1-carbonyl)prop-2-enenitrile] | 92.1
Cc1ccc(C)c(NC(=O)C(C#N)=Cc2cccn2C)c1 [8-M07, 2-cyano-N-(2,5-dimethylphenyl)-3-(1-methyl-1H-pyrrol-2-yl)prop-2-enamide] | 87.8
Cc1n[nH]c(C)c1C=C(C#N)C(=O)Nc1cc(Cl)cc(Cl)c1 [8-M08, 2-cyano-N-(3,5-dichlorophenyl)-3-(3,5-dimethyl-1H-pyrazol-4-yl)prop-2-enamide] | 58.6
CCN1C(=O)CSC1=C(C#N)C(N)=O [8-M09, 2-cyano-2-(3-ethyl-4-oxo-1,3-thiazolidin-2-ylidene)acetamide] | 90.5
N#CC(=Cc1cnn(-c2ccc(Cl)cc2)c1)C(=O)NC1CCCC1 [8-M10, 3-[1-(4-chlorophenyl)-1H-pyrazol-4-yl]-2-cyano-N-cyclopentylprop-2-enamide] | 83.3

Reference: PMC11995724, “Antibiotic target discovery by integrated phenotypic and activity-based profiling of electrophilic fragments” (Cell chemical biology, 2025)
